Source: patent US20180206495A1, “SUBSTITUTED ARYL AND HETEROARYL CARBOXYLIC ACID HYDRAZIDES OR SALTS THEREOF AND USE THEREOF TO INCREASE STRESS TOLERANCE IN PLANTS” (BAYER CROPSCIENCE AKTIENGESELLSCHAFT, priority 2015, published 2018)

Experiments:
[1] = system: Zea mays; experiment: In vivo analyses Part A: drought stress, spray application, visual damage scoring, Zea mays
Experimental: (§1) Seeds of monocotyledonous and dicotyledonous crop plants were sown in sandy loam in wood-fiber or plastic pots, covered with soil or sand and cultivated in a greenhouse under good growth conditions. The trial plants were treated at the early leaf stage (BBCH10-BBCH13). To assure uniform water supply before commencement of stress, the potted plants were supplied with water by dam irrigation prior to substance application. The inventive compounds formulated in the form of wettable powders (WP) were sprayed onto the green parts of the plants as an aqueous suspension at an equivalent water application rate of 600 l/ha with addition of 0.2% wetting agent (e.g. agrotin). Substance application was followed immediately by stress treatment of the plants. For this purpose, the wood-fiber pots were transferred in plastic inserts in order to prevent them from subsequently drying out too quickly. Drought stress was induced by gradual drying out under the following conditions: “Day”: 14 hours with illumination at ˜26-30° C. “Night”: 10 hours without illumination at ˜18-20° C. The duration of the respective stress phases was guided mainly by the condition of the stressed control plants. It was ended (by re-irrigating and transfer to a greenhouse with good growth conditions) as soon as irreversible damage was observed on the stressed control plants. The end of the stress phase was followed by an about 4-7-day recovery phase, during which the plants were once again kept under good growth conditions in a greenhouse. The duration of the recovery phase was guided mainly by when the trial plants had attained a state which enabled visual scoring of potential effects, and is therefore variable. Once this juncture was reached, the intensities of damage were scored visually in comparison to untreated, unstressed controls of the same age. The damage intensity was at first assessed in per cent. These values were then used to calculate the efficacy of the test compounds by the following formula: [formula] EF: Efficacy DIs: Damage intensity of the stressed control plants DIt: Damage intensity of the stressed plants treated with test compound The values reported in tables A-1 to A-3 below are mean values from at least one trial with at least two repeats, showing the effects of selected compounds of the general formula (I) under drought stress on various crop plants.

[2] = system: Brassica napus; experiment: In vivo analyses Part A: drought stress, spray application, visual damage scoring, Brassica napus
Experimental: as §1

[3] = system: Triticum aestivum; experiment: In vivo analyses Part B: drought stress, spray application, appearance vs stressed control in categories, Triticum aestivum; design: key: 0: no positive effect; +: slight positive effect; ++: clear positive effect; +++: strong positive effect
Experimental: (§2) Seeds of monocotyledonous and dicotyledonous crop plants were sown in sandy loam in plastic pots, covered with soil or sand and cultivated in a greenhouse under good growth conditions. The test plants are treated at the early leaf stage (BBCH10-BBCH13). To assure uniform water supply before commencement of stress, the potted plants were supplied with water by dam irrigation prior to substance application. The inventive compounds were first formulated as wettable powders (WP) or dissolved in a solvent mixture. The further dilution was effected with water supplemented with 0.2% wetting agent (e.g. agrotin). The finished spray liquor was sprayed onto the green parts of the plant at an equivalent water application rate of 600 l/ha. Substance application was followed immediately by stress treatment of the plants. Drought stress was induced by gradual drying out under the following conditions: “Day”: 14 hours with illumination at ˜26-30° C. “Night”: 10 hours without illumination at ˜18-20° C. The duration of the respective stress phases was guided mainly by the condition of the stressed control plants. It was ended (by re-irrigating and transfer to a greenhouse with good growth conditions) as soon as irreversible damage was observed on the stressed control plants. The end of the stress phase was followed by an about 4-7-day recovery phase, during which the plants were once again kept under good growth conditions in a greenhouse. The duration of the recovery phase was guided mainly by when the trial plants had attained a state which enabled visual scoring of potential effects, and was therefore variable. Once this juncture had been reached, the appearance of the plants treated with test substances was recorded in comparison to the stressed control plants by the following categories: • 0 no positive effect • + slight positive effect • ++ clear positive effect • +++ strong positive effect In order to rule out any influence on the effects observed by any fungicidal or insecticidal action of the test compounds, it was additionally ensured that the tests proceeded without fungal infection or insect infestation. The values reported in tables B-1 and B-2 below are mean values of the results from at least three repeats. Effects of selected compounds of the general formula (I) under drought stress according to the following tables B-1 and B-2: […]

[4] = system: Brassica napus; experiment: In vivo analyses Part B: drought stress, spray application, appearance vs stressed control in categories, Brassica napus; design: key: 0: no positive effect; +: slight positive effect; ++: clear positive effect; +++: strong positive effect
Experimental: as §2

[5] = system: Triticum aestivum; experiment: In vivo analyses Part A: drought stress, spray application, visual damage scoring, Triticum aestivum; conditions: dosage 25 g/ha
Experimental: as §1

CN(C)N(Cc1ncc(Cl)cc1Cl)C(=O)c1cccc(Cl)c1 [A28-35]
EF [%] (ZEAMX) ([1]; dosage 250 g/ha): >5% | EF [%] (BRSNS) ([2]; dosage 250 g/ha): >5%

CN(C)N(Cc1ccccc1Cl)C(=O)c1ccccc1[N+](=O)[O-] [A32-1]
EF [%] (ZEAMX) ([1]; dosage 250 g/ha): >5%

CN(C)N(Cc1ccc2ccccc2n1)C(=O)c1cccc([N+](=O)[O-])c1 [A33-122]
EF [%] (ZEAMX) ([1]; dosage 25 g/ha): >5% | EF [%] (BRSNS) ([2]; dosage 250 g/ha): >5%

CN(C)N(Cc1ccc2ccccc2n1)C(=O)c1cccc(C#N)c1 [A34-122]
EF [%] (ZEAMX) ([1]; dosage 25 g/ha): >5%

CN(C)N(Cc1ccc(Cl)cc1Cl)C(=O)c1ccccc1I [A36-5]
Effect (TRZAS) ([3]; dosage 250 g/ha): + | Effect (BRSNS) ([4]; dosage 250 g/ha): ++

CN(C)N(Cc1ccccc1C#N)C(=O)c1ccccc1I [A36-61]
Effect (TRZAS) ([3]; dosage 250 g/ha): + | Effect (BRSNS) ([4]; dosage 250 g/ha): +

CN(C)N(Cc1cccnc1C#N)C(=O)c1ccccc1I [A36-679]
Effect (TRZAS) ([3]; dosage 250 g/ha): + | Effect (BRSNS) ([4]; dosage 250 g/ha): +

CN(C)N(Cc1ccccc1Cl)C(=O)c1ccc(C#N)cc1C(F)(F)F [A48-1]
Effect (TRZAS) ([3]; dosage 250 g/ha): + | Effect (BRSNS) ([4]; dosage 25 g/ha): +++

Cc1ccc(C(=O)N(Cc2nccc(Cl)c2Cl)N(C)C)c(C(F)(F)F)c1 [A50-40]
Effect (TRZAS) ([3]; dosage 250 g/ha): + | Effect (BRSNS) ([4]; dosage 25 g/ha): ++

CN(C)N(Cc1ncc(C(F)(F)F)cc1Cl)C(=O)c1ccc(Cl)cc1C(F)(F)F [A51-36]
Effect (TRZAS) ([3]; dosage 25 g/ha): + | Effect (BRSNS) ([4]; dosage 250 g/ha): +

CN(C)N(Cc1ccccc1C#N)C(=O)c1ccc(Cl)cc1C(F)(F)F [A51-61]
Effect (TRZAS) ([3]; dosage 25 g/ha): + | Effect (BRSNS) ([4]; dosage 25 g/ha): ++

CN(C)N(Cc1ncc(C(F)(F)F)cc1Cl)C(=O)c1ccc(F)cc1F [A52-36]
Effect (TRZAS) ([3]; dosage 250 g/ha): + | Effect (BRSNS) ([4]; dosage 25 g/ha): +++

CN(C)N(Cc1ccccc1Cl)C(=O)c1cnccc1C(F)(F)F [B1-1]
EF [%] (ZEAMX) ([1]; dosage 25 g/ha): >5%

CN(C)N(Cc1c(Cl)cccc1Cl)C(=O)c1cnccc1C(F)(F)F [B1-7]
Effect (TRZAS) ([3]; dosage 250 g/ha): + | Effect (BRSNS) ([4]; dosage 250 g/ha): +++

CN(C)N(Cc1ccc(F)cc1F)C(=O)c1cnccc1C(F)(F)F [B1-15]
Effect (TRZAS) ([3]; dosage 250 g/ha): + | Effect (BRSNS) ([4]; dosage 250 g/ha): +++

CN(C)N(Cc1c(F)cccc1F)C(=O)c1cnccc1C(F)(F)F [B1-17]
Effect (TRZAS) ([3]; dosage 250 g/ha): + | Effect (BRSNS) ([4]; dosage 250 g/ha): ++

CN(C)N(Cc1cccc(C#N)c1)C(=O)c1cnccc1C(F)(F)F [B1-62]
Effect (TRZAS) ([3]; dosage 250 g/ha): + | Effect (BRSNS) ([4]; dosage 250 g/ha): ++

CN(C)N(Cc1ccc2ccccc2n1)C(=O)c1cnccc1C(F)(F)F [B1-122]
EF [%] (ZEAMX) ([1]; dosage 250 g/ha): >5% | EF [%] (BRSNS) ([2]; dosage 25 g/ha): >5%

Cc1c(OCC(F)(F)F)ccnc1CN(C(=O)c1cnccc1C(F)(F)F)N(C)C [B1-144]
EF [%] (TRZAS) [5]: >5% | EF [%] (BRSNS) ([2]; dosage 25 g/ha): >5%

CN(C)N(Cc1ccccn1)C(=O)c1cccnc1C(F)(F)C(F)(F)F [B3-21]
EF [%] (ZEAMX) ([1]; dosage 25 g/ha): >5% | EF [%] (BRSNS) ([2]; dosage 250 g/ha): >5%

CN(C)N(Cc1ccccc1C#N)C(=O)c1ccc(C(F)(F)F)nc1 [B5-61]
Effect (TRZAS) ([3]; dosage 25 g/ha): + | Effect (BRSNS) ([4]; dosage 25 g/ha): +

CN(C)N(Cc1ccc(Cl)nc1)C(=O)c1ccc(C(F)F)nc1 [B6-94]
Effect (TRZAS) ([3]; dosage 250 g/ha): + | Effect (BRSNS) ([4]; dosage 250 g/ha): +

CN(C)N(Cc1ccc(Cl)cc1)C(=O)c1ccncc1 [C1-3]
EF [%] (ZEAMX) ([1]; dosage 25 g/ha): >5% | EF [%] (BRSNS) ([2]; dosage 250 g/ha): >5%

CN(C)N(Cc1ccccc1C#N)C(=O)c1ccncc1 [C1-61]
EF [%] (BRSNS) ([2]; dosage 250 g/ha): >5%

CN(C)N(Cc1cccc(C#N)c1)C(=O)c1ccncc1 [C1-62]
EF [%] (BRSNS) ([2]; dosage 2.5 g/ha): >5%

CN(C)N(Cc1ncc(C(F)(F)F)cc1Cl)C(=O)c1ccncc1C(F)(F)F [C2-36]
EF [%] (BRSNS) ([2]; dosage 25 g/ha): >5%

CN(C)N(Cc1cc(C(F)(F)F)ccc1Cl)C(=O)c1ccccn1 [D1-86]
EF [%] (ZEAMX) ([1]; dosage 250 g/ha): >5% | EF [%] (BRSNS) ([2]; dosage 25 g/ha): >5%

CN(C)N(Cc1ccccc1Cl)C(=O)c1cncnc1C(F)(F)Cl [E3-1]
Effect (TRZAS) ([3]; dosage 25 g/ha): + | Effect (BRSNS) ([4]; dosage 25 g/ha): +

CN(C)N(Cc1ccccc1C#N)C(=O)c1ccnnc1 [G1-61]
Effect (TRZAS) ([3]; dosage 100 g/ha): + | Effect (BRSNS) ([4]; dosage 100 g/ha): +
